Data taken from patent publication US9128081B2, “TDP-43-storing cell model” (TOKYO METROPOLITAN INSTITUTE OF MEDICAL SCIENCE, priority 2008, dated 2015).
“Also recorded” adds a separate entry of the source. Where a SMILES comes first, the peptide text is derived from it. The star is where a group is joined. Cbz = O=C(OCc1ccccc1)*

Legend:
Type in all cases: cell-based, human
[1] = system: SH-SY5Y cells expressing NLS2-deficient mutant TDP-43; experiment: Protease inhibitor treatment of NLS2-deficient mutant-expressing cells, confocal laser microscope; conditions: inhibitor 20 μM, 6 hours; for inclusion formation / expression pattern, anti-TARDBP staining: 37° C.
Protocol: (§1) Each of the above-described various plasmid vectors (pcDNA3 or pEGFP system, 1 μg) was integrated into SH-SY5Y cell using FuGENE6 transfection reagent (Roche Diagnostics). FuGENE6 at 3-fold volume of the total plasmid amount was mixed with the plasmid, left to stand at room temperature for 15 minutes, and then mixed with the cell solution. The resultant was cultured for 2-3 days, and used for preparation of cell lysates or immunohistological staining.
(§2) SH-SY5Y cells cultured on glass covers were mixed with each of the various expression vectors (1 μg) and added in the presence of FuGENE6. After two days of cultivation, cell immobilization or protease inhibitor treatment was carried out. In the protease inhibitor treatment, a final concentration of 20 μM of MG132 (proteasome inhibitor) or carbobenzoxy-leucyl-leucinal (zLL: calpain inhibitor) was added to the cell, and cultured at 37° C. for 6 hours. Thereafter, the cell was immobilized in a 4% paraformaldehyde solution. […] After washing with 50 mM Tris-HCl containing 0.05% Tween 20 and 150 mM NaCl (pH 7.5) (TBS-T), the cell was caused to react with a fluorescence-labeled secondary antibody at 37° C. for an hour. […] The resultant was sealed on a glass slide, and then analyzed with a confocal laser microscope (Carl Zeiss).
(§3) The primary antibody and the fluorescence-labeled secondary antibody used were as follows. • Primary antibody: • anti-TARDBP (ProteinTech, 1:1000 dilution); • anti-pS409/410 (antibody (antibody that specifically binds to TDP-43 aggregates) obtained by using, as an antigen, a peptide in which Ser residues at positions 409 and 410 of TDP-43 are both phosphorylated, 1:500 dilution); • anti-ubiquitin (MAB1510, CHEMICON, 1:500 dilution) • Fluorescence-labeled secondary antibody: • FITC-labeled anti-rabbit IgG (anti-rabbit immunoglobulin, FITC-labeled, Product number: F9887, Sigma, 1:500 dilution); • rhodamine-labeled anti-mouse IgG (anti-mouse immunoglobulin, TRITC-labeled, Product number: T2402, Sigma, 1:500 dilution) […]

[2] = system: SH-SY5Y cells expressing NLS1-deficient mutant TDP-43; experiment: Protease inhibitor treatment of NLS1-deficient mutant-expressing cells, confocal laser microscope; conditions: inhibitor 20 μM, 6 hours; for inclusion formation, anti-pS409/410 staining: inclusion diameter about 10 μm
Protocol: as §1, §2, §3

[3] = system: SH-SY5Y cells expressing wild-type TDP-43; experiment: Protease inhibitor treatment of wild-type TDP-43-expressing cells, confocal laser microscope; conditions: inhibitor 20 μM, 37° C., 6 hours
Protocol: as §1
as §2, with “Zeiss). […]” for “Zeiss).”

[4] = system: SH-SY5Y cells expressing pcDNA3-TDP delta NLS1&2 (TDP delta NLS1&2); experiment: Suppression of formation of intracellular TDP-43 inclusions by low-molecular compounds (TDP delta NLS1&2); conditions: enhanced concentration-dependently, 3 days after addition
Protocol: (§4) The cell used was human neuroblast cell line SH-SY5Y, while pEGFP-TDP 162-414 (GFP-TDP 162-414) and pcDNA3-TDP delta NLS1&2 (TDP delta NLS1&2) which gave more significant formation of intracellular inclusions among various TDP-43 mutants were used to search for an inhibitor for the above-described inclusion formation.
(§5) Gene transfection into SH-SY5Y cell was carried out according to the method described in “Cultivation of SH-SY5Y cell and integration of plasmid vector” above, where 1 μg of each of the various plasmids was transfected into the cell with three-fold volume of a transfection reagent (FuGENE6: 3 μl).
(§6) Treatment with a candidate inhibitor took place two hours after gene transfection. […] The concentrations of methylene blue were determined to take the above concentrations by considering the concentration conditions that have no damage on cell proliferation. On the other hand, the concentrations of dimebon were determined by referring to a publication (Jun Wu et al., Molecular Neurodegeneration, 2008, vol. 3, p. 15), and the preparation method (suspension in sterile water) was carried out according to the instruction provided by the reagent supplier. […]
Fluorescence-Labeled Secondary Antibody: • Fluorescein isothiocyanate (FITC)-labeled anti-rabbit IgG (Sigma, 1:500 dilution) • Alexa-568-labeled anti-mouse IgG (1:500 dilution) […]

[5] = system: SH-SY5Y cells expressing pEGFP-TDP 162-414 (GFP-TDP 162-414); experiment: Suppression of formation of intracellular TDP-43 inclusions by low-molecular compounds (GFP-TDP 162-414); conditions: enhanced concentration-dependently, 3 days after addition
Protocol: as §4, §5
as §6, with “transfection. As candidate inhibitors, methylene blue and dimebon were examined.” for “transfection.”
Fluorescence-Labeled Secondary Antibody: • Alexa-568-labeled anti-mouse IgG (1:500 dilution) […]

[6] = methylene blue 0.05 μM, FIGS. 19 and 20

Structure (SMILES): CC(C)C[C@@H](C=O)NC(=O)[C@H](CC(C)C)NC(=O)[C@H](CC(C)C)NC(=O)OCc1ccccc1 [MG132] (Cbz-Leu-Leu-Leu-aldehyde)
- inclusion formation / expression pattern, anti-TARDBP staining [1]: inclusions were found in the nucleus
- inclusion formation, anti-pS409/410 and anti-ubiquitin staining ([1]; inclusion diameter about 10 μm): emergence of intranuclear inclusions positive to both anti-pS409/410 and anti-ubiquitin
- inclusion formation, anti-TARDBP staining ([2]; 37° C.): did not show significant difference from MG132-free cases; also recorded: cytoplasmic inclusions were not observed
- inclusion formation, anti-pS409/410 staining [2]: anti-pS409/410-positive cytoplasmic inclusions were observed
- inclusion formation, anti-TARDBP staining [3]: did not show significant difference from MG132-free cases

Structure (SMILES): Cc1ccc2c(c1)c1c(n2CCc2ccc(C)nc2)CCN(C)C1 [dimebon]
- inhibition effect on formation of intracellular TDP-43 inclusions ([4]; dimebon 20 μM, FIGS. 21 and 22): inhibition effect of dimebon was also confirmed
- inhibition effect on formation of intracellular TDP-43 inclusions ([5]; dimebon 20 μM, FIGS. 21 and 22): inhibition effect of dimebon was also confirmed

Structure (SMILES): CN(C)c1ccc2nc3ccc(=[N+](C)C)cc-3sc2c1 [methylene blue]
- inhibition effect on formation of intracellular TDP-43 inclusions [4, 6]: inhibition effect of methylene blue was confirmed
- inhibition effect on formation of intracellular TDP-43 inclusions [5, 6]: inhibition effect of methylene blue was confirmed

Structure (SMILES): CC(C)C[C@@H](C=O)NC(=O)[C@H](CC(C)C)NC(=O)OCc1ccccc1 [zLL, carbobenzoxy-leucyl-leucinal]
- inclusion formation / expression pattern, anti-TARDBP staining [1]: no particular change was found in the expression pattern
- inclusion formation, anti-pS409/410 staining [2]: no intracellular inclusion was observed
